Assay results from PubChem BioAssay AID256 (DTP/NCI, 2004).
Several values for one entry are separate records, joined by “and”; a condition that tells them apart may be missing. Equal entries are not always repeated. Toxic doses and inconclusive results are not listed. Rule for the calls: active = survival T/C of 150% or more; inactive = T/C below 125% in these data.

Tested on: CD2F1 mice, L1210 leukemia ip, survival T/C
Assay: NCI In Vivo Anticancer Drug Screen. Data for tumor model L1210 Leukemia (intraperitoneal) in CD2F1 (CDF1) mice
Conditions: higher = longer survival
How it was run: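 Tumor-bearing mice (transplanted tumor) were split into treated and vehicle control groups, and the measured endpoint of each treated group was divided by that of its vehicle controls.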

[1] = endpoint: mean survival time, dose: 100.0 mg/kg/injection, schedule: Q04DX003 (ip), vehicle: saline with Tween-80
[2] = endpoint: mean survival time, dose: 200.0 mg/kg/injection, schedule: Q04DX003 (ip), vehicle: saline with Tween-80
[3] = endpoint: mean survival time, dose: 100.0 mg/kg/injection, schedule: Q01DX009 (ip), vehicle: saline with Tween-80
[4] = endpoint: mean survival time, dose: 200.0 mg/kg/injection, schedule: Q01DX009 (ip), vehicle: saline with Tween-80
[5] = endpoint: mean survival time, dose: 400.0 mg/kg/injection, schedule: Q01DX009 (ip), vehicle: saline with Tween-80
[6] = endpoint: median survival time, dose: 50.0 mg/kg/injection, schedule: Q01DX005 (ip), vehicle: saline
[7] = endpoint: median survival time, dose: 100.0 mg/kg/injection, schedule: Q01DX005 (ip), vehicle: saline
[8] = endpoint: mean survival time, dose: 400.0 mg/kg/injection, schedule: Q04DX003 (ip), vehicle: saline with Tween-80
[9] = endpoint: mean survival time, dose: 100.0 mg/kg/injection, schedule: Q04DX002 (ip), vehicle: saline with Tween-80
[10] = endpoint: mean survival time, dose: 200.0 mg/kg/injection, schedule: Q04DX002 (ip), vehicle: saline with Tween-80
[11] = endpoint: mean survival time, dose: 400.0 mg/kg/injection, schedule: Q04DX002 (ip), vehicle: saline with Tween-80

Measured: T/C

CC(=O)N(C)C
inactive: endpoint: mean survival time, dose: 62.0 mg/kg/injection, schedule: Q01DX Z (ip), vehicle: saline 92 % of control | endpoint: mean survival time, dose: 112.0 mg/kg/injection, schedule: Q01DX009 (ip), vehicle: saline 100 % of control | endpoint: mean survival time, dose: 122.5 mg/kg/injection, schedule: Q01DX009 (ip), vehicle: saline 91 % of control | endpoint: mean survival time, dose: 125.0 mg/kg/injection, schedule: Q01DX Z (ip), vehicle: saline 96 % of control | endpoint: mean survival time, dose: 225.0 mg/kg/injection, schedule: Q01DX009 (ip), vehicle: saline 95 % of control and 97 % of control | endpoint: mean survival time, dose: 250.0 mg/kg/injection, schedule: Q01DX Z (ip), vehicle: saline 92 % of control | endpoint: mean survival time, dose: 450.0 mg/kg/injection, schedule: Q01DX009 (ip), vehicle: saline 101 % of control and 103 % of control | endpoint: mean survival time, dose: 500.0 mg/kg/injection, schedule: Q01DX Z (ip), vehicle: saline 102 % of control | endpoint: mean survival time, dose: 900.0 mg/kg/injection, schedule: Q01DX009 (ip), vehicle: saline 89 % of control and 90 % of control | endpoint: mean survival time, dose: 1800.0 mg/kg/injection, schedule: Q01DX009 (ip), vehicle: saline 117 % of control and 112 % of control

CC(C)(C)OC(=O)NC(Cc1ccc(OCc2ccccc2)cc1)C(=O)O (stereo not drawn)
inactive: [1] 95 % of control | [2] 101 % of control

COC(=O)CC(CC(=O)c1ccccc1)c1ccccc1 (stereo not drawn)
inactive: endpoint: mean survival time, dose: 50.0 mg/kg/injection, schedule: Q01DX009 (ip), vehicle: distilled water + Tween-80 94 % of control | endpoint: mean survival time, dose: 50.0 mg/kg/injection, schedule: Q01DX009 (ip), vehicle: saline with Tween-80 95 % of control and 98 % of control | endpoint: mean survival time, dose: 100.0 mg/kg/injection, schedule: Q01DX009 (ip), vehicle: distilled water + Tween-80 90 % of control | [3] 100 % of control and 106 % of control | endpoint: mean survival time, dose: 200.0 mg/kg/injection, schedule: Q01DX009 (ip), vehicle: distilled water + Tween-80 90 % of control | [4] 97 % of control and 100 % of control | endpoint: mean survival time, dose: 400.0 mg/kg/injection, schedule: Q01DX009 (ip), vehicle: distilled water + Tween-80 90 % of control | [5] 97 % of control and 98 % of control

Cc1cc2c(=O)[nH]cnc2[nH]1
inactive: endpoint: median survival time, dose: 12.5 mg/kg/injection, schedule: Q01DX005 (ip), vehicle: saline with Tween-80 102 % of control | endpoint: median survival time, dose: 25.0 mg/kg/injection, schedule: Q01DX005 (ip), vehicle: saline with Tween-80 100 % of control | endpoint: median survival time, dose: 50.0 mg/kg/injection, schedule: Q01DX005 (ip), vehicle: saline with Tween-80 101 % of control | [6] 102 % of control | [7] 90 % of control

Cn1nc(NC(=O)C(F)(F)F)c2ncc(-c3ccccc3)nc21
inactive: [1] 91 % of control | [2] 87 % of control | [8] 91 % of control

COc1cccc(C(O)c2ccncc2C)c1OC (stereo not drawn)
inactive: endpoint: mean survival time, dose: 25.0 mg/kg/injection, schedule: Q01DX009 (ip), vehicle: Klucel (hydroxypropylcellulose) (HPC) 97 % of control | endpoint: mean survival time, dose: 50.0 mg/kg/injection, schedule: Q01DX009 (ip), vehicle: Klucel (hydroxypropylcellulose) (HPC) 97 % of control | endpoint: mean survival time, dose: 100.0 mg/kg/injection, schedule: Q01DX009 (ip), vehicle: Klucel (hydroxypropylcellulose) (HPC) 95 % of control | endpoint: mean survival time, dose: 200.0 mg/kg/injection, schedule: Q01DX009 (ip), vehicle: Klucel (hydroxypropylcellulose) (HPC) 98 % of control

O=Nc1cc(S(=O)(=O)O)c2ccccc2c1O
inactive: [3] 90 % of control | [1] 97 % of control | [4] 88 % of control and 109 % of control | [5] 95 % of control | [8] 97 % of control

O=C(Nc1cccc2c(NC(=O)c3ccccc3)cccc12)c1ccccc1
inactive: [3] 94 % of control | [4] 95 % of control | [5] 91 % of control

CC(C(=O)c1ccccc1)C(c1ccccc1)P(=O)(c1ccccc1)c1ccccc1 (stereo not drawn)
inactive: [3] 102 % of control | [5] 104 % of control

COC1CC(N)C(O)C(C)O1 (stereo not drawn)
inactive: endpoint: mean survival time, dose: 12.5 mg/kg/injection, schedule: Q01DX009 (ip), vehicle: water 103 % of control | endpoint: mean survival time, dose: 25.0 mg/kg/injection, schedule: Q01DX009 (ip), vehicle: water 101 % of control | endpoint: mean survival time, dose: 50.0 mg/kg/injection, schedule: Q01DX009 (ip), vehicle: water 107 % of control | endpoint: mean survival time, dose: 100.0 mg/kg/injection, schedule: Q01DX009 (ip), vehicle: water 105 % of control | endpoint: mean survival time, dose: 200.0 mg/kg/injection, schedule: Q01DX009 (ip), vehicle: water 92 % of control

O=[N+]([O-])c1ccc(N2N=NC3C4CCC(C4)C32)cc1 (stereo not drawn)
inactive: [1] 93 % of control | [2] 91 % of control | [8] 96 % of control

O=c1[nH]c(=S)n2ncnc2[nH]1
inactive: endpoint: mean survival time, dose: 100.0 mg/kg/injection, schedule: Q01DX009 (ip), vehicle: acetone 97 % of control | endpoint: mean survival time, dose: 200.0 mg/kg/injection, schedule: Q01DX009 (ip), vehicle: acetone 103 % of control | endpoint: mean survival time, dose: 400.0 mg/kg/injection, schedule: Q01DX009 (ip), vehicle: acetone 95 % of control

CN(C)Cc1c(-c2ccccc2)c(CN(C)C)n2ccccc12
inactive: endpoint: mean survival time, dose: 75.0 mg/kg/injection, schedule: Q01DX001 (ip), vehicle: saline 97 % of control

CCC(C)CC(O)CC1=CCCCC1 (stereo not drawn)
inactive: [1] 91 % of control | [2] 95 % of control | [8] 106 % of control

Nc1ncnc2c1nc(Br)n2C1OC(CO)C(O)C1O (stereo not drawn)
inactive: [9] 95 % of control | [10] 98 % of control | [11] 98 % of control

O=C(Oc1ccccc1)C(O)CO (stereo not drawn)
inactive: endpoint: mean survival time, dose: 100.0 mg/kg/injection, schedule: Q01DX001 (ip), vehicle: saline with Tween-80 104 % of control | endpoint: mean survival time, dose: 200.0 mg/kg/injection, schedule: Q01DX001 (ip), vehicle: saline with Tween-80 101 % of control | endpoint: mean survival time, dose: 400.0 mg/kg/injection, schedule: Q01DX001 (ip), vehicle: saline with Tween-80 97 % of control

O=c1n(C2OC(CO)C(O)C2O)ccc2nnnn12 (stereo not drawn)
inactive: endpoint: mean survival time, dose: 12.5 mg/kg/injection, schedule: Q01DX005 (ip), vehicle: distilled water + Tween-80 100 % of control | endpoint: mean survival time, dose: 25.0 mg/kg/injection, schedule: Q01DX005 (ip), vehicle: distilled water + Tween-80 96 % of control | endpoint: mean survival time, dose: 50.0 mg/kg/injection, schedule: Q01DX005 (ip), vehicle: distilled water + Tween-80 100 % of control | endpoint: mean survival time, dose: 100.0 mg/kg/injection, schedule: Q01DX005 (ip), vehicle: distilled water + Tween-80 96 % of control | endpoint: mean survival time, dose: 200.0 mg/kg/injection, schedule: Q01DX005 (ip), vehicle: distilled water + Tween-80 102 % of control

O=C1CSC(=S)N1/N=C/c1ccc(Cl)s1
inactive: endpoint: mean survival time, dose: 75.0 mg/kg/injection, schedule: Q01DX001 (ip), vehicle: other 96 % of control

Cc1ccc(S(=O)(=O)NC(=O)C(=[N+]=[N-])c2ccc([N+](=O)[O-])cc2)cc1
inactive: endpoint: median survival time, dose: 25.0 mg/kg/injection, schedule: Q04DX002 (ip), vehicle: saline with Tween-80 100 % of control | endpoint: median survival time, dose: 50.0 mg/kg/injection, schedule: Q04DX002 (ip), vehicle: saline with Tween-80 90 % of control | endpoint: median survival time, dose: 100.0 mg/kg/injection, schedule: Q04DX002 (ip), vehicle: saline with Tween-80 90 % of control | endpoint: median survival time, dose: 200.0 mg/kg/injection, schedule: Q04DX002 (ip), vehicle: saline with Tween-80 90 % of control

O=P1(OCCBr)NCCCO1 (stereo not drawn)
inactive: endpoint: mean survival time, dose: 62.5 mg/kg/injection, schedule: Q01DX001 (ip), vehicle: water 95 % of control | endpoint: mean survival time, dose: 125.0 mg/kg/injection, schedule: Q01DX001 (ip), vehicle: water 101 % of control | endpoint: mean survival time, dose: 250.0 mg/kg/injection, schedule: Q01DX001 (ip), vehicle: water 104 % of control | endpoint: mean survival time, dose: 500.0 mg/kg/injection, schedule: Q01DX001 (ip), vehicle: water 98 % of control | endpoint: mean survival time, dose: 750.0 mg/kg/injection, schedule: Q01DX001 (ip), vehicle: water 101 % of control

O=c1[nH]cc(Br)c(=O)[nH]1
inactive: [9] 101 % of control | [10] 97 % of control | [11] 106 % of control

Cc1cn(C2CC(OP(=O)(O)OCC3OC(n4cc(C)c(=O)[nH]c4=O)CC3OP(=O)(O)OCC3OC(n4cc(C)c(=O)[nH]c4=O)CC3OP(=O)(O)OCC3OC(n4cc(C)c(=O)[nH]c4=O)CC3OP(=O)(O)OCC3OC(n4ccc(N)nc4=O)C(O)C3O)C(CO)O2)c(=O)[nH]c1=O (stereo not drawn)
inactive: endpoint: median survival time, dose: 25.0 mg/kg/injection, schedule: Q01DX005 (ip), vehicle: saline 111 % of control | [6] 114 % of control | [7] 124 % of control

O/N=C(/CN1CCOCC1)c1ccccc1
inactive: [3] 97 % of control | [1] 102 % of control | [4] 94 % of control | [2] 96 % of control | [5] 96 % of control | [8] 102 % of control

CCCCCCCCCCCCCCCOc1ccc2ccccc2c1
inactive: endpoint: mean survival time, dose: 100.0 mg/kg/injection, schedule: Q01DX001 (ip), vehicle: Klucel (hydroxypropylcellulose) (HPC) 102 % of control | endpoint: mean survival time, dose: 200.0 mg/kg/injection, schedule: Q01DX001 (ip), vehicle: Klucel (hydroxypropylcellulose) (HPC) 94 % of control | endpoint: mean survival time, dose: 400.0 mg/kg/injection, schedule: Q01DX001 (ip), vehicle: Klucel (hydroxypropylcellulose) (HPC) 90 % of control
